Results on 13 compounds are retold here after US9511073B2, “Aromatic amides and uses thereof” (TAXIS Pharmaceuticals, Inc., priority 2011, dated 2016).

SMILES strings stand for the structures. In brackets after ≈: the same amount, converted by molar mass.

This assay deals with Staphylococcus aureus (Isolate ID ATCC 29213). The experiment in a line: Bacterial assay: MIC by broth microdilution or agar dilution (CLSI), S. aureus ATCC 29213. The following applies: Staphylococcus aureus, ATCC29213, read-out: S. aureus MIC (μg/mL) Activity Range, S. aureus (ATCC29213). The assay is classed as cell-based. How it is done:
Compounds are tested for antimicrobial activity by susceptibility testing in liquid or on solid media. Minimum inhibitory concentrations (MICs) for compounds against each strain are determined by the broth microdilution or agar dilution method according to the guidelines of the Clinical Laboratories and Standards Institute, formerly the National Committee for Clinical Laboratory Standards (Clinical Laboratories and Standards Institute. Methods for Dilution Antimicrobial Susceptibility Tests for Bacteria That Grow Aerobically; Approved Standard—Seventh Edition. Document M7-A7. CLSI, Wayne, Pa., 2006; Clinical Laboratories and Standards Institute). The bacterial strains tested include S. aureus (Staphylococcus aureus (Isolate ID ATCC 29213)) and an FtsZ mutant of this isolate (FtsZ-G196A Staphylococcus aureus (Isolate ID GG/190723/sa/1.2)). Compound MICs were determined to be in the following activity ranges “A” activity≦0.25 μg/mL; “B” activity>0.25 μg/mL-1.0 μg/mL; “C” activity>1.0 μg/mL-16 μg/mL; “D” activity>16 μg/mL and ND=not determined. The bracketed entries indicate entantiomer(s) and their activity.
On the technique in general: In broth dilution the organism is exposed to a series of concentrations in liquid medium.
In the case of `NC(=O)c1c(F)ccc(OC(COC(=O)NCCC(=O)O)c2nc(-c3ccc(C(F)(F)F)cc3)c(Br)o2)c1F` (stereo not shown) [Compound 143, 3-(((2-(5-bromo-4-(4-(trifluoromethyl)phenyl)oxazol-2-yl)-2-(3-carbamoyl-2,4-difluorophenoxy)ethoxy)carbonyl)amino)propanoic acid], the MIC lay in the range of 1 to 16 µg/mL (≈ 1.61 to 25.7 µM).
The result for `COc1ccc(-c2nc(C(CO)Oc3ccc(F)c(C(N)=O)c3F)oc2Br)c(F)c1` (stereo not shown) [Compound 234, 3-(1-(5-bromo-4-(2-fluoro-4-methoxyphenyl)oxazol-2-yl)-2-hydroxyethoxy)-2,6-difluorobenzamide] reads 0.25 to 1 µg/mL (≈ 0.513 to 2.05 µM).
As for `CCCc1oc(C(C)Oc2ccc(F)c(C(N)=O)c2F)nc1-c1ccc(Cl)cc1` (stereo not shown) [Compound 19], the MIC was in the range of 0.25 to 1 µg/mL (≈ 0.594 to 2.38 µM).
Consider `NC(=O)c1c(F)ccc(O[C@H](COCCO)c2nc(-c3ccc(F)cc3F)c(Br)o2)c1F` [Compound 265B, (R)-3-(1-(5-bromo-4-(2,4-difluorophenyl)oxazol-2-yl)-2-(2-hydroxyethoxy)ethoxy)-2,6-difluorobenzamide], for which the MIC was in the range of 1 to 16 µg/mL (≈ 1.93 to 30.8 µM).
`Cn1nccc1CNC(=O)OCC(Oc1ccc(F)c(C(N)=O)c1F)c1nc(-c2ccc(C(F)(F)F)cc2)c(Br)o1` (stereo not shown) [Compound 194, 2-(5-bromo-4-(4-(trifluoromethyl)phenyl)oxazol-2-yl)-2-(3-carbamoyl-2,4-difluorophenoxy)ethyl ((1-methyl-1H-pyrazol-5-yl)methyl)carbamate]: the MIC is under 0.25 µg/mL.
With `CCOC(=O)C(Oc1ccc(F)c(C(N)=O)c1F)c1csc(-c2ccc(C(F)(F)F)cc2)n1` (stereo not shown) [Compound 125, ethyl 2-(3-carbamoyl-2,4-difluorophenoxy)-2-(2-(4-(trifluoromethyl)phenyl)thiazol-4-yl)acetate] the figure was 0.25 to 1 µg/mL (≈ 0.514 to 2.06 µM); with `NC(=O)c1c(F)ccc(OC(CCO)c2nc(-c3ccc(C(F)(F)F)cc3)c(Br)o2)c1F` (stereo not shown) [Compound 73, 3-(1-(5-bromo-4-(4-(trifluoromethyl)phenyl)oxazol-2-yl)-3-hydroxypropoxy)-2,6-difluorobenzamide], 0.25 to 1 µg/mL (≈ 0.48 to 1.92 µM); with `CS(=O)(=O)OCC(Oc1ccc(F)c(C(N)=O)c1F)c1nc(-c2ccc(Cl)cc2)c(Cl)o1` (stereo not shown) [Compound 48, 2-(3-carbamoyl-2,4-difluorophenoxy)-2-(5-chloro-4-(4-chlorophenyl)oxazol-2-yl)ethyl methanesulfonate], 1 to 16 µg/mL.
As for `C=CCOP(=O)(OCC=C)OCC(Oc1ccc(F)c(C(N)=O)c1F)c1nc(-c2ccc(C(F)(F)F)cc2)c(Br)o1` (stereo not shown) [Compound 71, diallyl (2-(5-bromo-4-(4-(trifluoromethyl)phenyl)oxazol-2-yl)-2-(3-carbamoyl-2,4-difluorophenoxy)ethyl) phosphate], the MIC lay in the range of 0.25 to 1 µg/mL.
For the compound `CC(Oc1ccc(F)c(C(N)=O)c1F)c1nc(Br)cs1` (stereo not shown) [Compound 2, 3-(1-(4-bromothiazol-2-yl)ethoxy)-2,6-difluorobenzamide], the MIC fell in the range of 1 to 16 µg/mL (≈ 2.75 to 44.1 µM).
The result for `CCCc1oc(C(COC(C)=O)Oc2ccc(F)c(C(N)=O)c2F)nc1-c1ccc(C(F)(F)F)cc1` (stereo not shown) [Compound 65, 2-(3-carbamoyl-2,4-difluorophenoxy)-2-(5-propyl-4-(4-(trifluoromethyl)phenyl)oxazol-2-yl)ethyl acetate] reads 1 to 16 µg/mL; that for `Cc1nn(C)cc1CNC(=O)OCC(Oc1ccc(F)c(C(N)=O)c1F)c1nc(-c2ccc(C(F)(F)F)cc2)c(Br)o1` (stereo not shown) [Compound 204, 2-(5-bromo-4-(4-(trifluoromethyl)phenyl)oxazol-2-yl)-2-(3-carbamoyl-2,4-difluorophenoxy)ethyl ((1,3-dimethyl-1H-pyrazol-4-yl)methyl)carbamate], 0.25 to 1 µg/mL (≈ 0.38 to 1.52 µM).
As for `C=CCc1oc(C(CO)Oc2ccc(F)c(C(N)=O)c2F)nc1-c1ccc(C(F)(F)F)cc1` (stereo not shown) [Compound 66, 3-(1-(5-allyl-4-(4-(trifluoromethyl)phenyl)oxazol-2-yl)-2-hydroxyethoxy)-2,6-difluorobenzamide], the MIC is 1 to 16 µg/mL (≈ 2.14 to 34.2 µM).
